From the NIST ThermoML archive (doi:10.1016/j.jct.2006.07.017)

Experiment: xn = mol fraction of the nth substance listed
Settings: 101 kPa, Liquid

Cc1ccccc1C [1,2-dimethylbenzene] + CN(C)C=O
Settings	mass density [kg/m3]
293.15 K, x1 = 0.0555	943.56
293.15 K, x1 = 0.1111	938.71
293.15 K, x1 = 0.1754	933.3
293.15 K, x1 = 0.2352	928.47
293.15 K, x1 = 0.2952	923.8
293.15 K, x1 = 0.3562	919.23
293.15 K, x1 = 0.4251	914.29
293.15 K, x1 = 0.4865	910.06
293.15 K, x1 = 0.5484	905.95
293.15 K, x1 = 0.612	901.89
293.15 K, x1 = 0.6785	897.8
293.15 K, x1 = 0.7325	894.58
293.15 K, x1 = 0.7954	890.96
293.15 K, x1 = 0.8654	887.04
293.15 K, x1 = 0.9325	883.4
303.15 K, x1 = 0.0652	933.58
303.15 K, x1 = 0.1251	928.39
303.15 K, x1 = 0.1854	923.37
303.15 K, x1 = 0.2462	918.5
303.15 K, x1 = 0.3125	913.42
303.15 K, x1 = 0.3785	908.59
303.15 K, x1 = 0.4358	904.56
303.15 K, x1 = 0.4962	900.47
303.15 K, x1 = 0.5521	896.83
303.15 K, x1 = 0.6125	893.04
303.15 K, x1 = 0.6784	889.05
303.15 K, x1 = 0.7451	885.17
303.15 K, x1 = 0.8012	882.01
303.15 K, x1 = 0.8658	878.48
303.15 K, x1 = 0.9485	874.12
313.15 K, x1 = 0.0441	926.11
313.15 K, x1 = 0.1025	920.99
313.15 K, x1 = 0.1762	914.82
313.15 K, x1 = 0.2341	910.18
313.15 K, x1 = 0.2951	905.51
313.15 K, x1 = 0.3756	899.63
313.15 K, x1 = 0.4415	895.06
313.15 K, x1 = 0.5012	891.08
313.15 K, x1 = 0.5685	886.8
313.15 K, x1 = 0.6215	883.55
313.15 K, x1 = 0.6865	879.72
313.15 K, x1 = 0.7451	876.39
313.15 K, x1 = 0.8021	873.25
313.15 K, x1 = 0.8654	869.88
313.15 K, x1 = 0.9448	865.79
323.15 K, x1 = 0.0485	916.16
323.15 K, x1 = 0.1124	910.62
323.15 K, x1 = 0.1852	904.61
323.15 K, x1 = 0.2521	899.35
323.15 K, x1 = 0.3251	893.91
323.15 K, x1 = 0.3952	888.96
323.15 K, x1 = 0.4658	884.2
323.15 K, x1 = 0.5315	879.99
323.15 K, x1 = 0.5952	876.08
323.15 K, x1 = 0.6584	872.37
323.15 K, x1 = 0.7251	868.61
323.15 K, x1 = 0.7952	864.81
323.15 K, x1 = 0.8456	862.18
323.15 K, x1 = 0.9012	859.35
323.15 K, x1 = 0.9599	856.45
333.15 K, x1 = 0.0521	906.08
333.15 K, x1 = 0.1245	899.89
333.15 K, x1 = 0.1895	894.6
333.15 K, x1 = 0.2451	890.29
333.15 K, x1 = 0.3021	886.06
333.15 K, x1 = 0.3685	881.35
333.15 K, x1 = 0.4214	877.76
333.15 K, x1 = 0.4912	873.24
333.15 K, x1 = 0.5584	869.09
333.15 K, x1 = 0.6121	865.92
333.15 K, x1 = 0.6725	862.48
333.15 K, x1 = 0.7315	859.26
333.15 K, x1 = 0.7943	855.95
333.15 K, x1 = 0.8651	852.38
333.15 K, x1 = 0.9432	848.58
343.15 K, x1 = 0.0625	895.2
343.15 K, x1 = 0.1325	889.33
343.15 K, x1 = 0.1952	884.33
343.15 K, x1 = 0.2658	878.99
343.15 K, x1 = 0.3321	874.24
343.15 K, x1 = 0.3965	869.86
343.15 K, x1 = 0.4652	865.41
343.15 K, x1 = 0.5325	861.27
343.15 K, x1 = 0.5912	857.83
343.15 K, x1 = 0.6524	854.4
343.15 K, x1 = 0.7125	851.16
343.15 K, x1 = 0.7895	847.19
343.15 K, x1 = 0.8462	844.4
343.15 K, x1 = 0.9012	841.76
343.15 K, x1 = 0.9577	839.14
353.15 K, x1 = 0.0715	884.27
353.15 K, x1 = 0.1252	879.83
353.15 K, x1 = 0.1858	875.05
353.15 K, x1 = 0.2521	870.08
353.15 K, x1 = 0.3215	865.16
353.15 K, x1 = 0.3865	860.79
353.15 K, x1 = 0.4251	858.31
353.15 K, x1 = 0.4851	854.59
353.15 K, x1 = 0.5584	850.27
353.15 K, x1 = 0.6221	846.71
353.15 K, x1 = 0.6825	843.48
353.15 K, x1 = 0.7551	839.78
353.15 K, x1 = 0.8154	836.84
353.15 K, x1 = 0.8851	833.58
353.15 K, x1 = 0.9411	831.05

Cc1cccc(C)c1 [1,3-dimethylbenzene] + CN(C)C=O
Settings	mass density [kg/m3]
293.15 K, x1 = 0.0541	942.31
293.15 K, x1 = 0.1151	935.54
293.15 K, x1 = 0.1752	929.18
293.15 K, x1 = 0.2332	923.31
293.15 K, x1 = 0.3021	916.67
293.15 K, x1 = 0.3661	910.82
293.15 K, x1 = 0.4341	904.88
293.15 K, x1 = 0.4984	899.53
293.15 K, x1 = 0.5624	894.44
293.15 K, x1 = 0.6165	890.3
293.15 K, x1 = 0.6751	885.98
293.15 K, x1 = 0.7315	881.96
293.15 K, x1 = 0.8085	876.67
293.15 K, x1 = 0.8758	872.21
293.15 K, x1 = 0.9425	867.93
303.15 K, x1 = 0.0625	932.16
303.15 K, x1 = 0.1251	925.21
303.15 K, x1 = 0.1852	918.87
303.15 K, x1 = 0.2515	912.21
303.15 K, x1 = 0.3251	905.23
303.15 K, x1 = 0.3895	899.45
303.15 K, x1 = 0.4517	894.13
303.15 K, x1 = 0.5214	888.45
303.15 K, x1 = 0.5865	883.4
303.15 K, x1 = 0.6485	878.8
303.15 K, x1 = 0.7125	874.25
303.15 K, x1 = 0.7885	869.05
303.15 K, x1 = 0.8458	865.29
303.15 K, x1 = 0.9012	861.75
303.15 K, x1 = 0.9666	857.68
313.15 K, x1 = 0.0569	923.43
313.15 K, x1 = 0.1125	917.21
313.15 K, x1 = 0.1812	909.9
313.15 K, x1 = 0.2554	902.46
313.15 K, x1 = 0.3251	895.89
313.15 K, x1 = 0.4023	889.03
313.15 K, x1 = 0.4785	882.65
313.15 K, x1 = 0.5445	877.43
313.15 K, x1 = 0.6054	872.82
313.15 K, x1 = 0.6695	868.19
313.15 K, x1 = 0.7254	864.3
313.15 K, x1 = 0.7812	860.56
313.15 K, x1 = 0.8452	856.41
313.15 K, x1 = 0.9032	852.77
313.15 K, x1 = 0.9577	849.43
323.15 K, x1 = 0.0482	914.86
323.15 K, x1 = 0.1065	908.29
323.15 K, x1 = 0.1684	901.67
323.15 K, x1 = 0.2341	895.02
323.15 K, x1 = 0.3051	888.24
323.15 K, x1 = 0.3659	882.75
323.15 K, x1 = 0.4252	877.65
323.15 K, x1 = 0.4932	872.11
323.15 K, x1 = 0.5641	866.62
323.15 K, x1 = 0.6247	862.17
323.15 K, x1 = 0.6951	857.22
323.15 K, x1 = 0.7554	853.17
323.15 K, x1 = 0.8251	848.68
323.15 K, x1 = 0.8812	845.18
323.15 K, x1 = 0.9572	840.6
333.15 K, x1 = 0.0547	904.33
333.15 K, x1 = 0.1122	897.9
333.15 K, x1 = 0.1815	890.59
333.15 K, x1 = 0.2551	883.29
333.15 K, x1 = 0.3151	877.68
333.15 K, x1 = 0.3821	871.76
333.15 K, x1 = 0.4554	865.64
333.15 K, x1 = 0.5054	861.68
333.15 K, x1 = 0.5625	857.35
333.15 K, x1 = 0.6262	852.72
333.15 K, x1 = 0.6785	849.09
333.15 K, x1 = 0.7412	844.91
333.15 K, x1 = 0.8054	840.8
333.15 K, x1 = 0.8714	836.74
333.15 K, x1 = 0.9548	831.81
343.15 K, x1 = 0.0625	893.44
343.15 K, x1 = 0.1214	886.95
343.15 K, x1 = 0.1851	880.31
343.15 K, x1 = 0.2451	874.4
343.15 K, x1 = 0.3121	868.17
343.15 K, x1 = 0.3852	861.78
343.15 K, x1 = 0.4451	856.83
343.15 K, x1 = 0.5054	852.1
343.15 K, x1 = 0.5641	847.72
343.15 K, x1 = 0.6214	843.62
343.15 K, x1 = 0.6885	839.06
343.15 K, x1 = 0.7451	835.37
343.15 K, x1 = 0.8125	831.16
343.15 K, x1 = 0.8821	827
343.15 K, x1 = 0.9525	822.95
353.15 K, x1 = 0.0521	884.42
353.15 K, x1 = 0.112	877.82
353.15 K, x1 = 0.1785	870.9
353.15 K, x1 = 0.2352	865.33
353.15 K, x1 = 0.2958	859.69
353.15 K, x1 = 0.3562	854.38
353.15 K, x1 = 0.4215	848.95
353.15 K, x1 = 0.4854	843.93
353.15 K, x1 = 0.5412	839.75
353.15 K, x1 = 0.6121	834.72
353.15 K, x1 = 0.6858	829.79
353.15 K, x1 = 0.7551	825.38
353.15 K, x1 = 0.8254	821.12
353.15 K, x1 = 0.8851	817.65
353.15 K, x1 = 0.9512	813.95
